US20220153732A1, “PROTEIN SECRETION INHIBITORS” (KEZAR LIFE SCIENCES, priority 2019, published 2022)
Like-named read-outs stand apart in the source and are kept apart here.

Assays:
Type in all cases: cell-based
[1] = system: HER3-ss+4aa/Gaussia Luciferase; test: Dox-Induced Her3-ss-Gluc Assay
Summary of the method: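 Compounds, diluted in DMSO/media containing doxycycline, were incubated at 37° C., 5% CO2 with cells seeded one day earlier. The cells stably express HER3-ss+4aa/Gaussia luciferase under T-REx control. Where no stereochemistry is shown, data refer to the mixture of stereoisomers.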

[2] = system: human multiple myeloma cell line NCI-H929; test: H929 Cell Viability Assay; conditions: 48 hr, NCI-H929 cells, Celltiter-Glo, read-out: 48 hr H929 Viability Celltiter-Glo: Mean EC50
Procedure: Plates were incubated at 37° C., 5% CO2 for 48 hours. After 48 hours, Celltiter-Glo® (Promega) was added to each well and luciferase signal was quantified using Tecan Infinite M1000 Pro for cell viability determination.
For chemical structures that include one or more stereoisomers, but are illustrated without indicating stereochemistry, the assay data refers to a mixture of stereoisomers.

[3] = system: PD1-ss+10aa/Gaussia Luciferase; test: Dox-Induced PD1-ss-Gluc Assay
Summary of the method: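 Compounds, diluted in DMSO/media with doxycycline, were added to cells plated a day earlier and kept at 37° C under 5% CO2. The cells stably express a Gaussia luciferase construct fused to PD1-ss+10aa, induced via the T-REx system. Unassigned stereochemistry means mixture data.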

[4] = system: IL-2-FL/Gaussia Luciferase; test: Dox Induced IL2-FL-Gluc Assay
Summary of the method: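 Compounds were added together with doxycycline in DMSO/media and incubated at 37° C., 5% CO2. The cells were a stably selected line carrying IL-2-FL/Gaussia luciferase under T-REx inducible control. Structures drawn without stereochemistry were tested as stereoisomer mixtures.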

[5] = system: TNFα-FL/Gaussia Luciferase; test: Dox Induced TNFα-FL-Gluc Assay
Summary of the method: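 Compounds were added in doxycycline-containing DMSO/media to cells plated the previous day and incubated at 37° C under 5% CO2. These cells stably express a TNFα-FL/Gaussia luciferase cDNA whose expression is under T-REx (Dox-inducible) control, selected with Hygromycin and Blasticidin.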

[6] = system: human multiple myeloma cell line U266B1; test: U266 Cell Viability Assay; conditions: U-266, 48 hr, U266B1 cells, Celltiter-Glo, read-out: 48 hr U266 Viability Celltiter-Glo: Mean EC50
Summary of the method: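 Viability measured by CellTiter-Glo luciferase signal after 48 h compound exposure (37 °C, 5% CO2) of U266B1 cells in 384-well format. Where stereochemistry is not shown, data refer to the stereoisomer mixture.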

[7] = 24 hr doxycycline induction, 293FRT/TO cells, Gaussia luciferase signal; read-out: 24 hr Dox Inducible Her3(ss + 4)Gluc 293FRT/TO: Mean IC50
[8] = 24 hr doxycycline induction, 293FRT/TO cells, Gaussia luciferase signal; read-out: 24 hr Dox Inducible PD1ssGluc 293FRT/TO: Mean IC50
[9] = 24 hr doxycycline induction, 293FRT/TO cells, Gaussia luciferase signal; read-out: 24 hr Dox Inducible IL2FLGIuc 293FRT/TO: Mean IC50
[10] = 24 hr doxycycline induction, 293FRT/TO cells, Gaussia luciferase signal; read-out: 24 hr Dox Inducible TNFaFLGluc 293FRT/TO: Mean IC50

CC(C)OC(C)(C)c1csc(NC(=O)c2cccn2CC2CC(=O)N(C)C2)n1 (stereo not drawn) [Compound A210, N-(4-(2-isopropoxypropan-2-yl)thiazol-2-yl)-1-((1-methyl-5-oxopyrrolidin-3-yl)methyl)-1H-pyrrole-2-carboxamide]
IC50 ([1]; read-out: 24 hr Dox Inducible Her3(ss + 4)Gluc 293FRT/TO: Mean IC50; 24 hr doxycycline induction, 293FRT/TO cells, Gaussia luciferase signal): > 25 µM | EC50 [2]: > 25 µM | IC50 ([3]; read-out: 24 hr Dox Inducible PD1ssGluc 293FRT/TO: Mean IC50; 24 hr doxycycline induction, 293FRT/TO cells, Gaussia luciferase signal): > 25 µM | IC50 ([4]; read-out: 24 hr Dox Inducible IL2FLGIuc 293FRT/TO: Mean IC50; 24 hr doxycycline induction, 293FRT/TO cells, Gaussia luciferase signal): > 25 µM | IC50 ([5]; read-out: 24 hr Dox Inducible TNFaFLGluc 293FRT/TO: Mean IC50; 24 hr doxycycline induction, 293FRT/TO cells, Gaussia luciferase signal): > 25 µM | EC50 [6]: > 25 µM

COc1cnccc1Cn1cccc1C(=O)Nc1nc(C(C)(C)OC(C)C)cs1 [Compound A211, N-(4-(2-isopropoxypropan-2-yl)thiazol-2-yl)-1-((3-methoxypyridin-4-yl)methyl)-1H-pyrrole-2-carboxamide]
IC50 [1, 7]: > 25 µM | EC50 [2]: > 25 µM | IC50 [3, 8]: 10 µM | IC50 [4, 9]: 8.31 µM | IC50 [5, 10]: > 25 µM | EC50 [6]: > 25 µM

CC(C)OC(C)(C)c1csc(NC(=O)c2cccn2Cc2ccncc2NCc2ccccc2)n1 [Compound A212, 1-((3-(benzylamino)pyridin-4-yl)methyl)-N-(4-(2-isopropoxypropan-2-yl)thiazol-2-yl)-1H-pyrrole-2-carboxamide]
IC50 [1, 7]: 4.2 µM | EC50 [2]: 2.99 µM | IC50 [3, 8]: 4.74 µM | IC50 [4, 9]: 4.57 µM | IC50 [5, 10]: > 25 µM | EC50 [6]: 3.76 µM

O=C(Nc1nc(Cc2ccccc2)cs1)c1cccn1Cc1ccncc1NCc1ccccc1 [Compound A213, 1-((3-(benzylamino)pyridin-4-yl)methyl)-N-(4-benzylthiazol-2-yl)-1H-pyrrole-2-carboxamide]
IC50 [1, 7]: 4.94 µM | EC50 [2]: 13.8 µM | IC50 [3, 8]: 12.1 µM | IC50 [4, 9]: 6.05 µM | IC50 [5, 10]: > 25 µM | EC50 [6]: 17.7 µM

CC(C)OC(C)(C)c1csc(NC(=O)c2cccn2Cc2ccncc2C(F)(F)F)n1 [Compound A214, N-(4-(2-isopropoxypropan-2-yl)thiazol-2-yl)-1-((3-(trifluoromethyl)pyridin-4-yl)methyl)-1H-pyrrole-2-carboxamide]
IC50 [1, 7]: 6.7 µM | EC50 [2]: > 25 µM | IC50 [3, 8]: 4.55 µM | IC50 [4, 9]: 6.45 µM | IC50 [5, 10]: > 25 µM | EC50 [6]: > 25 µM

O=C(Nc1nc(C2CC2c2ccccc2)cs1)c1cccn1CCCc1ccncc1 [Compound A215, N-(4-((1R,2R)-2-phenylcyclopropypthiazol-2-yl)-1-(3-(pyridin-4-yl)propyl)-1H-pyrrole-2-carboxamide]
IC50 [1, 7]: 0.72 µM | EC50 [2]: 13.1 µM | IC50 [3, 8]: 0.443 µM | IC50 [4, 9]: 1.25 µM | IC50 [5, 10]: 2.49 µM | EC50 [6]: > 25 µM

O=C(Nc1nc(-c2ccccc2)cs1)c1cccn1Cc1ccncc1 [Compound A216, N-(4-phenylthiazol-2-yl)-1-(pyridin-4-ylmethyl)-1H-pyrrole-2-carboxamide]
IC50 [1, 7]: 1.91 µM | EC50 [2]: > 25 µM | IC50 [3, 8]: 0.318 µM | IC50 [4, 9]: 1.56 µM | IC50 [5, 10]: 18.8 µM | EC50 [6]: > 25 µM

O=C(Nc1nc(/C=C/Cc2ccccc2)cs1)c1cccn1CCCc1ccncc1 [Compound A217, N-(4-(3-phenylprop-1-en-1-yl)thiazol-2-yl)-1-(3-(pyridin-4-yl)propyl)-1H-pyrrole-2-carboxamide]
IC50 [1, 7]: 0.425 µM | EC50 [2]: > 21.5 µM | IC50 [3, 8]: 0.245 µM | IC50 [4, 9]: 0.943 µM | IC50 [5, 10]: 3.53 µM | EC50 [6]: > 25 µM

O=C(Nc1nc(/C=C/Cc2ccccc2)cs1)c1cccn1Cc1ccncc1 [Compound A218, N-(4-(3-phenylprop-1-en-1-yl)thiazol-2-yl)-1-(pyridin-4-ylmethyl)-1H-pyrrole-2-carboxamide]
IC50 [1, 7]: 0.315 µM | EC50 [2]: 17.1 µM | IC50 [3, 8]: 0.131 µM | IC50 [4, 9]: 0.779 µM | IC50 [5, 10]: 3.03 µM | EC50 [6]: > 25 µM

O=C(Nc1nc(/C=C/c2ccc(C(F)(F)F)cc2)cs1)c1cccn1Cc1ccncc1 [Compound A219, 1-(pyridin-4-ylmethyl)-N-(4-(4-(trifluoromethyl)styryl)thiazol-2-yl)-1H-pyrrole-2-carboxamide]
IC50 [1, 7]: 0.234 µM | EC50 [2]: 8.6 µM | IC50 [3, 8]: 0.048 µM | IC50 [4, 9]: 0.443 µM | IC50 [5, 10]: 0.946 µM | EC50 [6]: 13.7 µM

O=C(Nc1nc(/C=C/c2ccc(F)cc2)cs1)c1cccn1Cc1ccncc1 [Compound A220, N-(4-(4-fluorostyryl)thiazol-2-yl)-1-(pyridin-4-ylmethyl)-1H-pyrrole-2-carboxamide]
IC50 [1, 7]: 0.329 µM | EC50 [2]: > 25 µM | IC50 [3, 8]: 0.086 µM | IC50 [4, 9]: 0.628 µM | IC50 [5, 10]: 3.75 µM | EC50 [6]: > 25 µM

CC(C)OC(C)(C)c1csc(NC(=O)c2cccn2C/C=C/c2ccncc2)n1 [Compound A221, N-(4-(2-isopropoxypropan-2-yl)thiazol-2-yl)-1-(3-(pyridin-4-yl)allyl)-1H-pyrrole-2-carboxamide]
IC50 [1, 7]: > 25 µM | EC50 [2]: > 25 µM | IC50 [3, 8]: > 25 µM | IC50 [4, 9]: > 25 µM | IC50 [5, 10]: > 25 µM | EC50 [6]: > 25 µM

O=C(Nc1nc(/C=C/c2ccoc2)cs1)c1cccn1Cc1ccncc1 [Compound A222, N-(4-(2-(furan-3-yl)vinyl)thiazol-2-yl)-1-(pyridin-4-ylmethyl)-1H-pyrrole-2-carboxamide]
IC50 [1, 7]: 1.8 µM | EC50 [2]: 19.1 µM | IC50 [3, 8]: 0.348 µM | IC50 [4, 9]: 2.27 µM | IC50 [5, 10]: 7.7 µM | EC50 [6]: > 25 µM

CC(=O)Nc1ccc(/C=C/c2csc(NC(=O)c3cccn3Cc3ccncc3)n2)cc1 [Compound A223, N-(4-(4-acetamidostyryl)thiazol-2-yl)-1-(pyridin-4-ylmethyl)-1H-pyrrole-2-carboxamide]
IC50 [1, 7]: 3.12 µM | EC50 [2]: 22.3 µM | IC50 [3, 8]: 0.513 µM | IC50 [4, 9]: 8.04 µM | IC50 [5, 10]: > 25 µM | EC50 [6]: > 25 µM

N#Cc1ccc(/C=C/c2csc(NC(=O)c3cccn3Cc3ccncc3)n2)cc1 [Compound A224, N-(4-(4-cyanostyryl)thiazol-2-yl)-1-(pyridin-4-ylmethyl)-1H-pyrrole-2-carboxamide]
IC50 [1, 7]: 0.296 µM | EC50 [2]: 20.5 µM | IC50 [3, 8]: 0.141 µM | IC50 [4, 9]: > 25 µM | IC50 [5, 10]: > 25 µM | EC50 [6]: > 25 µM

CC(C)(CCc1ccccc1)c1csc(NC(=O)c2cccn2Cc2ccncc2)n1 [Compound A225, N-(4-(2-methyl-4-phenylbutan-2-yl)thiazol-2-yl)-1-(pyridin-4-ylmethyl)-1H-pyrrole-2-carboxamide]
IC50 [1, 7]: 0.558 µM | EC50 [2]: 8.89 µM | IC50 [3, 8]: 0.324 µM | IC50 [4, 9]: 0.486 µM | IC50 [5, 10]: 3.84 µM | EC50 [6]: > 25 µM

CC(C)OC(C)(C)c1csc(NC(=O)c2cccn2CCOc2ccncc2)n1 [Compound A226, N-(4-(2-isopropoxypropan-2-yl)thiazol-2-yl)-1-(2-(pyridin-4-yloxy)ethyl)-1H-pyrrole-2-carboxamide]
IC50 [1, 7]: 0.426 µM | EC50 [2]: 11.9 µM | IC50 [3, 8]: 0.302 µM | IC50 [4, 9]: 0.32 µM | IC50 [5, 10]: 7.08 µM | EC50 [6]: > 25 µM

O=C(Nc1nc(/C=C/c2ccc([N+](=O)[O-])cc2)cs1)c1cccn1Cc1ccncc1 [Compound A227]
IC50 [1, 7]: 0.379 µM | EC50 [2]: 8.95 µM | IC50 [3, 8]: 0.053 µM | IC50 [4, 9]: 0.625 µM | IC50 [5, 10]: 1.9 µM | EC50 [6]: > 21.4 µM

CC(C)(COc1ccccc1)c1csc(NC(=O)c2cccn2Cc2ccncc2)n1 [Compound A228]
IC50 [1, 7]: 0.73 µM | EC50 [2]: 9.25 µM | IC50 [3, 8]: 0.335 µM | IC50 [4, 9]: 0.933 µM | IC50 [5, 10]: 3.59 µM | EC50 [6]: > 25 µM

CN(C)c1ccc(/C=C/c2csc(NC(=O)c3cccn3Cc3ccncc3)n2)cc1 [Compound A229]
IC50 [1, 7]: 0.568 µM | EC50 [2]: 24.9 µM | IC50 [3, 8]: 0.066 µM | IC50 [4, 9]: 1.05 µM | IC50 [5, 10]: 4.58 µM | EC50 [6]: > 25 µM

NC(=O)c1ccc(/C=C/c2csc(NC(=O)c3cccn3Cc3ccncc3)n2)cc1 [Compound A231]
IC50 [1, 7]: > 25 µM | EC50 [2]: 16.8 µM | IC50 [3, 8]: 0.506 µM | IC50 [4, 9]: 7.07 µM | IC50 [5, 10]: 11.2 µM | EC50 [6]: > 25 µM
